Tests used:
Dactolisib = compound: Cn1c(=O)n(-c2ccc(C(C)(C)C#N)cc2)c2c3cc(-c4cnc5ccccc5c4)ccc3ncc21 [Dactolisib]; experiment: relative viability (nuclei count vs DMSO), 5 days (fraction); higher = more cells survive
How it was run: (§1)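 MetaXpress counted nuclei in 4× images of lung cancer cell lines that had been fixed, permeabilised and Hoechst-stained in one step. Before that, cells in 1536-well plates were kept overnight at 37 °C, pinned with five √10-spaced library-drug doses on vehicle-anchored plates, and cultured 5 days without medium change. Viability takes treated-well nuclei over vehicle-well nuclei and uses the median across plates. Plates were accepted only at control CV below 25% and at least one doubling.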

AZ505 = compound: C1CCC(CC1)N(CCNCCC2=C3C(=C(C=C2)O)NC(=O)CO3)C(=O)CCNCCC4=CC(=C(C=C4)Cl)Cl [AZ505]; experiment: as above
How it was run: as §1

Row | Cell Line | relative viability (Dactolisib; 0.002 µM) | relative viability (Dactolisib; 0.006325 µM) | relative viability (Dactolisib; 0.02 µM) | relative viability (Dactolisib; 0.06325 µM) | relative viability (Dactolisib; 0.2 µM) | relative viability (AZ505; 0.08 µM) | relative viability (AZ505; 0.253 µM) | relative viability (AZ505; 0.8 µM) | relative viability (AZ505; 2.53 µM) | relative viability (AZ505; 8 µM)
1 | NCI-H441 | 1.28 | 1.02 | 0.925 | 0.48 | 0.298 | 0.865 | 1.09 | 1.07 | 0.997 | 1.24
2 | NCI-H460 | 1.04 | 0.989 | 0.984 | 0.541 | 0.488 | 0.991 | 0.99 | 0.966 | 1 | 0.976
3 | NCI-H520 | 1.01 | 0.777 | 0.764 | 0.243 | 0.2 | 0.92 | 1.07 | 0.86 | 1.08 | 1.04
4 | NCI-H522 | 0.971 | 0.932 | 0.967 | 0.895 | 0.568 | 0.922 | 0.961 | 0.981 | 1.05 | 1
5 | NCI-H596 | 1.09 | 0.91 | 0.886 | 0.558 | 0.409 | 0.888 | 0.784 | 0.972 | 0.955 | 0.957
6 | NCI-H647 | 1.05 | 0.824 | 0.691 | 0.254 | 0.208 | 0.943 | 1.01 | 0.996 | 0.895 | 1.02
7 | NCI-H650 | 1.07 | 0.937 | 0.892 | 0.747 | 0.412 | 1.01 | 0.887 | 0.948 | 1.1 | 1.01
8 | NCI-H661 | 1.08 | 1.03 | 0.953 | 0.482 | 0.432 | 0.951 | 1.01 | 0.963 | 0.963 | 1
9 | NCI-H727 | 0.839 | 1.02 | 0.9 | 0.487 | 0.414 | 0.836 | 0.879 | 0.864 | 0.654 | 1.11
10 | NCI-H838 | 0.978 | 0.775 | 0.659 | 0.347 | 0.296 | 0.915 | 0.976 | 0.948 | 0.942 | 0.998
11 | NCI-H1299 | 1 | 1.05 | 1.02 | 0.769 | 0.885 | 0.981 | 0.968 | 0.969 | 0.948 | 1
12 | NCI-H1355 | 1.05 | 0.925 | 0.915 | 0.479 | 0.369 | 0.928 | 0.854 | 0.97 | 0.936 | 1.03
13 | NCI-H1395 | 0.781 | 0.852 | 0.807 | 0.67 | 0.577 | 0.901 | 0.815 | 0.879 | 0.903 | 1.03
14 | NCI-H1437 | 1.01 | 0.991 | 1.03 | 0.914 | 0.741 | 0.977 | 1 | 0.983 | 1.01 | 0.991
15 | NCI-H1563 | 1 | 0.928 | 0.885 | 0.605 | 0.562 | 0.998 | 1.04 | 0.968 | 0.93 | 0.939
16 | NCI-H1623 | 1.14 | 0.968 | 0.918 | 0.531 | 0.402 | 0.894 | 1.03 | 0.984 | 0.937 | 1.04
17 | NCI-H1648 | 0.842 | 0.869 | 1.01 | 0.451 | 0.319 | 0.734 | 1.01 | 0.883 | 1.01 | 1.15

Row | Cell Line | relative viability (Dactolisib; 0.002 µM) | relative viability (Dactolisib; 0.006325 µM) | relative viability (Dactolisib; 0.02 µM) | relative viability (Dactolisib; 0.06325 µM) | relative viability (Dactolisib; 0.2 µM) | relative viability (AZ505; 0.08 µM) | relative viability (AZ505; 0.253 µM) | relative viability (AZ505; 0.8 µM) | relative viability (AZ505; 2.53 µM) | relative viability (AZ505; 8 µM)
18 | NCI-H1650 | 0.943 | 0.92 | 0.867 | 0.468 | 0.41 | 0.828 | 0.973 | 0.882 | 0.926 | 1.04
19 | NCI-H1651 | 1.01 | 1 | 0.872 | 0.555 | 0.434 | 0.927 | 0.984 | 0.977 | 0.938 | 1.04
20 | NCI-H1666 | 1.09 | 0.926 | 0.957 | 0.746 | 0.639 | 0.899 | 0.978 | 0.974 | 0.973 | 0.961
21 | NCI-H1703 |  | 0.768 | 0.784 | 0.479 | 0.405 | 0.733 | 0.853 | 1.04 | 1.11 | 1.03
22 | NCI-H1734 | 1.04 | 0.887 | 0.864 | 0.384 | 0.313 | 0.905 | 0.914 | 0.952 | 0.971 | 0.958
23 | NCI-H1755 | 1.04 | 0.976 | 0.963 | 0.887 | 0.742 | 0.93 | 1.05 | 0.962 | 0.98 | 0.958
24 | NCI-H1792 | 1.04 | 0.635 | 0.551 | 0.317 | 0.175 | 0.757 |  | 0.803 | 0.947 | 0.945
25 | NCI-H1793 | 0.807 | 0.569 | 0.474 | 0.242 | 0.241 | 0.805 | 0.883 | 0.83 | 0.768 | 0.976
26 | NCI-H1915 | 1.02 | 1.03 | 1.02 | 0.657 | 0.579 | 0.954 | 1.06 | 0.945 | 0.942 | 0.949
27 | NCI-H1944 | 1.12 | 0.973 | 0.917 | 0.387 | 0.402 | 0.949 | 0.989 | 1.06 | 0.861 | 1.02
28 | NCI-H1975 | 0.922 | 0.957 | 0.824 | 0.483 | 0.315 | 0.831 | 0.848 | 0.951 | 0.901 | 0.972
29 | NCI-H1993 | 1.01 | 0.702 | 0.663 | 0.59 | 0.603 | 0.871 | 0.888 | 0.903 | 1.02 | 1.09
30 | NCI-H2009 | 1.05 | 0.983 | 1.04 | 0.598 | 0.366 | 0.987 | 0.986 | 0.998 | 0.921 | 0.952
31 | NCI-H2023 | 0.827 | 0.875 | 0.579 | 0.166 | 0.12 | 0.901 | 0.936 | 0.931 | 0.923 | 0.957
32 | NCI-H2085 | 1.02 | 0.986 | 0.96 | 0.553 | 0.387 | 0.872 | 0.953 | 0.894 | 0.971 | 1.05
33 | NCI-H2087 | 1.38 | 1.22 | 1.07 | 0.657 | 0.437 | 0.883 | 0.987 | 0.978 | 0.996 | 0.982
34 | NCI-H2126 | 1.09 | 0.936 | 0.892 | 0.638 | 0.488 | 0.993 | 0.945 | 0.971 | 0.984 | 0.988

Reference: the supplement of paper PMC10307832
